The CheMixHub viscosity set

Test: xn = mol fraction of the nth substance listed

CCOCCO + OCCOCCO
101 kPa
Details | viscosity [mPa·s]
293.15 K, x1 = 0.0582 | 33.17
293.15 K, x1 = 0.0952 | 30.25
293.15 K, x1 = 0.2037 | 23.28
293.15 K, x1 = 0.3098 | 18.21
293.15 K, x1 = 0.4062 | 14.48
293.15 K, x1 = 0.4503 | 13.03
293.15 K, x1 = 0.5003 | 11.5
293.15 K, x1 = 0.5413 | 10.37
293.15 K, x1 = 0.5988 | 8.935
293.15 K, x1 = 0.6952 | 6.844
293.15 K, x1 = 0.8031 | 4.921
293.15 K, x1 = 0.9002 | 3.465
293.15 K, x1 = 0.9508 | 2.759
298.15 K, x1 = 0.0511 | 26.45
298.15 K, x1 = 0.1023 | 23.41
298.15 K, x1 = 0.2003 | 18.57
298.15 K, x1 = 0.2998 | 14.7
298.15 K, x1 = 0.3988 | 11.61
298.15 K, x1 = 0.4514 | 10.25
298.15 K, x1 = 0.4998 | 9.068
298.15 K, x1 = 0.5476 | 8.079
298.15 K, x1 = 0.5996 | 7.096
298.15 K, x1 = 0.6983 | 5.447
298.15 K, x1 = 0.7991 | 4.05
298.15 K, x1 = 0.882 | 3.061
298.15 K, x1 = 0.95 | 2.337
303.15 K, x1 = 0.0643 | 18.69
303.15 K, x1 = 0.0932 | 17.45
303.15 K, x1 = 0.2072 | 13.23
303.15 K, x1 = 0.3008 | 10.56
303.15 K, x1 = 0.4001 | 8.317
303.15 K, x1 = 0.4496 | 7.372
303.15 K, x1 = 0.4939 | 6.612
303.15 K, x1 = 0.5508 | 5.751
303.15 K, x1 = 0.5913 | 5.201
303.15 K, x1 = 0.701 | 3.93
303.15 K, x1 = 0.7959 | 3.051
303.15 K, x1 = 0.899 | 2.267
303.15 K, x1 = 0.9218 | 2.117

CC(CC(C)(C)C)CP(=O)(O)CC(C)CC(C)(C)C (centres undefined) + CCCCCCCO
298.15 K, 101 kPa
Details | viscosity [mPa·s]
x1 = 0.0091 | 6.029
x1 = 0.0166 | 6.297
x1 = 0.0189 | 6.395
x2 = 0.0832 | 103
x2 = 0.1509 | 92.76
x2 = 0.2814 | 72.97
x2 = 0.4338 | 51.94
x2 = 0.5979 | 33.45
x2 = 0.6948 | 24.29
x2 = 0.7164 | 22.65
x2 = 0.819 | 14.88
x2 = 0.83 | 13.87
x2 = 0.8984 | 10.18
x2 = 0.9056 | 9.875
x2 = 0.9596 | 7.316

CCOCCO + OCCO
Details | viscosity [mPa·s]
293.15 K, 101 kPa, x1 = 0.0582 | 18.48
293.15 K, 101 kPa, x1 = 0.0952 | 16.68
293.15 K, 101 kPa, x1 = 0.2037 | 11.81
293.15 K, 101 kPa, x1 = 0.3098 | 7.965
293.15 K, 101 kPa, x1 = 0.4062 | 5.445
293.15 K, 101 kPa, x1 = 0.4503 | 4.568
293.15 K, 101 kPa, x1 = 0.5003 | 3.813
293.15 K, 101 kPa, x1 = 0.5413 | 3.301
293.15 K, 101 kPa, x1 = 0.5988 | 2.777
293.15 K, 101 kPa, x1 = 0.6952 | 2.401
293.15 K, 101 kPa, x1 = 0.8031 | 2.264
293.15 K, 101 kPa, x1 = 0.9002 | 2.143
293.15 K, 101 kPa, x1 = 0.9508 | 2.121
293.15 K, 101.33 kPa, x2 = 0.0923 | 2.519
293.15 K, 101.33 kPa, x2 = 0.2349 | 3.38
293.15 K, 101.33 kPa, x2 = 0.3267 | 4.07
293.15 K, 101.33 kPa, x2 = 0.4103 | 4.91
293.15 K, 101.33 kPa, x2 = 0.4957 | 6.008
293.15 K, 101.33 kPa, x2 = 0.5486 | 6.84
293.15 K, 101.33 kPa, x2 = 0.6451 | 8.722
293.15 K, 101.33 kPa, x2 = 0.7319 | 10.9
293.15 K, 101.33 kPa, x2 = 0.7782 | 12.29
293.15 K, 101.33 kPa, x2 = 0.8336 | 14.04
293.15 K, 101.33 kPa, x2 = 0.9075 | 16.88
293.15 K, 101.33 kPa, x2 = 0.9556 | 19.08
298.15 K, 101 kPa, x1 = 0.0423 | 15.82
298.15 K, 101 kPa, x1 = 0.1127 | 13.26
298.15 K, 101 kPa, x1 = 0.1983 | 10.12
298.15 K, 101 kPa, x1 = 0.2953 | 7.192
298.15 K, 101 kPa, x1 = 0.3988 | 4.883
298.15 K, 101 kPa, x1 = 0.4532 | 4.022
298.15 K, 101 kPa, x1 = 0.5005 | 3.474
298.15 K, 101 kPa, x1 = 0.5429 | 3.085
298.15 K, 101 kPa, x1 = 0.593 | 2.739
298.15 K, 101 kPa, x1 = 0.6905 | 2.349
298.15 K, 101 kPa, x1 = 0.8044 | 2.188
298.15 K, 101 kPa, x1 = 0.8963 | 2.021
298.15 K, 101 kPa, x1 = 0.9496 | 1.94
303.15 K, 101 kPa, x1 = 0.0596 | 12.4
303.15 K, 101 kPa, x1 = 0.1011 | 11.29
303.15 K, 101 kPa, x1 = 0.1976 | 8.571
303.15 K, 101 kPa, x1 = 0.3002 | 5.937
303.15 K, 101 kPa, x1 = 0.3989 | 4.122
303.15 K, 101 kPa, x1 = 0.4504 | 3.447
303.15 K, 101 kPa, x1 = 0.4926 | 2.988
303.15 K, 101 kPa, x1 = 0.5502 | 2.554
303.15 K, 101 kPa, x1 = 0.6034 | 2.237
303.15 K, 101 kPa, x1 = 0.7013 | 1.974
303.15 K, 101 kPa, x1 = 0.8026 | 1.954
303.15 K, 101 kPa, x1 = 0.8923 | 1.933
303.15 K, 101 kPa, x1 = 0.9401 | 1.883

CCOCCO + CCC(C)=O
298.15 K, 101 kPa
Details | viscosity [mPa·s]
x2 = 0.1219 | 1.479
x2 = 0.2381 | 1.178
x2 = 0.3488 | 0.948
x2 = 0.4545 | 0.767
x2 = 0.5555 | 0.609
x2 = 0.6521 | 0.524
x2 = 0.7446 | 0.457
x2 = 0.8333 | 0.419
x2 = 0.9183 | 0.387
